Assay results reported in patent US9707267B2, “Beta-turn peptidomimetic cyclic compounds for treating dry eye” (Mimetogen Pharmaceuticals, Inc., priority 2008, dated 2017).

Assays:
[1] = test system: rat conjunctival goblet cells; assay: Glycoconjugate secretion from rat conjunctival goblet cells, ELLA (Example 1); format: cell-based; conditions: 2 hours, mean±sem
Method: Cells derived from the explants were grown in RPMI 1640 supplemented with 10% fetal bovine serum (FBS) and penicillin (100 U/mL)/streptomycin (100 μg/mL) at 37° C. in a humidified 5% CO2-atmosphere for seventy-two hours. Contaminating nongoblet cells were removed by scraping them from the plate. During this time, goblet cells migrated from the pieces and began to proliferate. After one week, the goblet cells were trypsinized and plated in twenty-four well culture plates with RPMI-1640 media supplemented with 10% FBS.
To measure glycoconjugate secretion, the conjunctival goblet cells were grown to confluence and were serum deprived for two hours before addition of nerve growth factor (NGF), carbachol (Cch), compound D3, compound 3Aa and compound 3Ak for two hours. Compounds D3, 3Aa and 3Ak were administered at concentrations of 30 μm (micromolar), 10 μM, 1 μM and 0.3 μM. The vehicle used to dissolve the compounds, dimethyl sulfoxide (DMSO) was also included. DMSO was used as the basal control for the 30 μM concentration of compound, which was at 0.1% (v/v). The cholinergic agonist carbachol (Cch), added at 100 μM (micromolar), was a positive control for glycoconjugate secretion. The amount of glycoconjugate secreted into the media was measured by enzyme-linked lectin assay (ELLA). The media were collected and analyzed for amount of the lectin-detectable glycoconjugates, including mucins. The amount of secretion was measured by using the lectin UEA-I which is specific for rat conjunctival goblet cell mucins. Biotinylated UEA-I lectin and alkaline phosphatase-labeled streptavidin were used as described in Rios, J. D., et al., “Role of Neurotrophins and Neurotrophin Receptors in Rat Conjunctival Goblet Cell Secretion and Proliferation, Ophthalmology & Visual Science, 48: 1543-1551 (2007), the entire content of which is incorporated herein by reference. The cells were removed and sonicated, and the cell homogenate was analyzed for the total amount of protein by using the Bradford protein assay. […] Glycoconjugate secretion was expressed as the increase (x-fold) over basal.
Data for CGC glycoconjugate secretion and proliferation were expressed as the increase (x-fold) above basal value, which was standardized to 1.0. For example, for the 0.3 μM (micromolar), 1 μM and 10 μM doses, the CGC glycoconjugate secretion and proliferation were expressed as test compound over untreated cells. For the 30 μM dose, the CGC glycoconjugate secretion and proliferation were expressed as test compound over DMSO untreated cells. Results are expressed as the mean±sem.

[2] = test system: cultured rat conjunctival goblet cells; assay: Goblet cell glycoconjugate secretion, ELLA with UEA-1 (Example 2); format: cell-based; conditions: 2 hours; for Glycoconjugate Secretion, Mean ± sem: mean of rats; for Glycoconjugate Secretion, Mean ± SD: mean of rats/plates
Method: The culturing of conjunctival goblet cells from explant cultures was as previously described in Shatos, M. et al., “Isolation, Characterization, and Propagation of Rat Conjunctival Goblet Cells In Vitro,” IOVS 42:1455-1464 (2001), the entire content of which is incorporated herein by reference. The tissue was finely minced and individual pieces were anchored onto scored 6-well cultures dishes in 0.5 mL of complete RPMI-1640 (supplemented with 10% FBS, 2 mM glutamine and 100 μg/mL penicillin-streptomycin) and incubated at 37° C. in a humidified 5% CO2-atmosphere. Explant cultures were refed every 2 days. Within a few days, goblet cells migrated from the pieces and began to proliferate. After approximately one week, the tissue plugs were removed and the goblet cells were allowed to grow to confluence. Cells were passaged once by trypsinization of adherent cells with 0.05% trypsin-0.53 mM EDTA (pH 7.4), and plated in 8-well Laboratory Tek chamber slides (histochemistry) or in 96 well (proliferation), 24 well (secretion), or 6 well (western blots) culture plates with complete RPMI-1640 media.
To measure cell secretion, goblet cells were grown to confluence and then serum depleted for 2 hours prior to stimulation. Cells were incubated with compound D3 at 2, 10, and 50 μM, NGF at 0.1, 1 and 10 nM, and PMA at 0.1, 1, and 10 nM in serum-free RPMI for 2 hours. Goblet cell secretion was measured using an enzyme-linked lectin assay (ELLA). Briefly, an aliquot of the cell culture supernatant was transferred to a 96-well polystyrene microtiter plate in triplicate (Corning Life Sciences #2592, Fisher Scientific, Nepean, Ont). A dilution series of bovine submaxillary mucin (BSM) (Sigma, St. Louis, Mo.) was included on each plate as the standard (standard curve data and data showing that detection of BSM is linear between 0.003 and 0.1 μg not shown). The plates were coated by evaporation at 37° C. overnight. After, the plates were washed three times with wash buffer [PBS containing 0.3% BSA, 0.05% Tween-20] then blocked for nonspecific binding with PBS containing 3% BSA and 0.05% Tween-20 at 37° C. for 1 hour. The wells were rinsed three times in wash buffer, and then incubated in 2 μg/mL biotinylated UEA-1 diluted in wash buffer (Vector Labs, Burlingame, Calif.) at 37° C. for 1 hour. The wells were rinsed three times in wash buffer, and then incubated in 1 μg/mL HRP-conjugated neutravidin diluted in wash buffer (Pierce, Rockford, Ill.) at 37° C. for 1 hour. After the wells were rinsed three times in wash buffer, the color development was performed with TMB (Promega, Madison, Wis.) and stopped with 0.5N Sulfuric acid. The absorbance was read at 450 nm on a Benchmark Plus (Biorad). The goblet cells remaining in the culture wells were either scraped in RIPA buffer [1% TritonX-100, 20 mM Tris-HCl pH 7.5, 150 mM NaCl, 1.5 mM MgCl2, 1% Na deoxycholate, 1 mM EGTA, 1 mM EDTA, 0.1% SDS, 10% glycerol, 1 mM Na vanadate, 10 mM Na fluoride, 10 mM Na pyrophosphate, complete mini EDTA-free protease inhibitors (Roche Applied Science, Indianapolis, Ind.)] or 1M Tris-buffer (pH 7.5), collected and sonicated. The amount of protein in the cell homogenate was analyzed using the Bradford protein assay kit using a dilution series of bovine serum albumin (BSA) as the standard (BioRad, Montreal, PQ). Glycoconjugate secretion was normalized to total protein in the homogenate. Data was then expressed as fold increase above basal. […]

p42/44 MAPK = assay: Activation of p42/44 MAPK in goblet cells, Western blot (Example 2); format: cell-based, rat; conditions: 100 nM, 5 minutes, positive control
Method: The activation of p42/44 MAPK was examined using Western blot techniques. Goblet cells were serum starved in serum-free RPMI for 4-6 hrs prior to the addition of PMA (100 nM), NGF (1 or 10 nM), or MIM-D3 (10 or 50 μM) for 5 minutes at 37° C. After, cells were rinsed once in cold PBS, scraped in 100 μL of 1×SDS-PAGE sample buffer [62.5 mM Tris-HCl pH 6.8, 10% glycerol, 2% SDS, 5% β-mercaptoethanol, 0.02 mg/mL bromophenol blue] and sonicated for 20 minutes. The homogenates were centrifuged at 14,900 g for 15 min at 4° C. Proteins in a […] of the supernatant were separated by SDS-PAGE (8% acrylamide gels) and transferred to nitrocellulose membranes. The membranes were blocked for 2 hours in 5% non-fat dried milk in buffer containing 20 mM Tris-HCl, pH 8.0, 150 mM NaCl, and 0.01% Tween-20 (TBST). The blots were then probed with an antibody directed against the phosphorylated form of MAPK1/2 (Calbiochem, San Diego, Calif.) at 0.1 μg/mL in TBST containing 5% BSA overnight at 4° C., followed by a 1 hour incubation in HRP-conjugated secondary anti-mouse antibody (Sigma, St. Louis, Mo.) at room temperature in TBST containing 5% non-fat dried milk. Immunoreactive bands were visualized using the enhanced chemiluminescence method (Perkin Elmer, Waltham, Mass.). The blots were stripped at 55° C. for 30 minutes in stripping buffer [62.5 mM Tris-HCl pH 6.8, 2% SDS, 0.1M β-mercaptoethanol] followed by re-probing with an antibody directed against actin (1:5000 dilution, Sigma, St. Louis, Mo.) in TBST containing 5% non-fat dried milk and incubation in HRP-conjugated secondary anti-rabbit antibody. The immunoreactive bands were digitally scanned on an EPSON scanner and analyzed using NIH ImageJ v1.38x. The amount of phosphorylated MAPK in each sample was standardized to the amount of total actin protein in the sample.
To determine if compound D3 and NGF induced glycoconjugates secretion via activation of the MAPK pathway, cultured goblet cells from 3 independent rats were stimulated by 10 and 50 μM compound D3, 1 and 10 nM NGF or PMA (100 nM, the positive control) for 5 minutes and MAPK activity was measured by western blot analysis. A representative western blot from 3 independent rat goblet cell cultures is shown in FIG. 9, and the quantification is shown in FIG. 10. There was a statistically significant effect of treatment on MAPK activation (P<0.0001). Compound D3 increased MAPK activity above basal by 2.5±0.3 fold at 10 μM and 2.2±0.5 fold at 50 μM and NGF increased MAPK activity by 2.8±0.5 at 1 nM (P<0.05) and 1.7±0.2 at 10 nM.

Work on `C[N+](C)(C)CCOC(N)=O` [Cch, carbachol, reference compound] yielded a CGC glycoconjugate secretion ([1]; 100 μM, positive control) of 1.3±0.3 fold above basal.
For `CC[C@H](C)[C@@H]1NC(=O)c2cc(N)ccc2OCc2ccc(C(N)=O)cc2NC(=O)[C@H](CCCCN)NC1=O` [Compound 3Aa], the CGC glycoconjugate secretion ([1]; 0.3 μM) was 2.1±0.3 fold above basal, the CGC glycoconjugate secretion ([1]; 1 μM) was 1.6±0.3 fold above basal and the CGC glycoconjugate secretion ([1]; 10 μM) was 1.7±0.4 fold above basal. The CGC glycoconjugate secretion ([1]; 30 μM, over DMSO basal) was 2.1±0.7 fold above basal.
Work on `N=C(N)NCCC[C@@H]1NC(=O)c2cc(N)ccc2OCc2ccc(C(N)=O)cc2NC(=O)CNC1=O` [Compound 3Ak] yielded a CGC glycoconjugate secretion ([1]; 0.3 μM) of 1.4±0.3 fold above basal, a CGC glycoconjugate secretion ([1]; 1 μM) of 1.1±0.3 fold above basal and a CGC glycoconjugate secretion ([1]; 10 μM) of 1.2±0.1 fold above basal. It also gave a CGC glycoconjugate secretion ([1]; 30 μM, over DMSO basal) of 1.1±0.3 fold above basal.
In the case of `CCCCCCCCCCCCCC(=O)O[C@@H]1[C@@H](C)[C@@]2(O)[C@@H](C=C(CO)C[C@]3(O)C(=O)C(C)=C[C@@H]23)[C@@H]2C(C)(C)[C@]12OC(C)=O` [PMA, Phorbol-12-myristate-13-acetate, reference compound], the “Glycoconjugate Secretion” value ([2]; 0.1 nM, Rat 2) is reported as 1.39 Fold increase above basal, the “Glycoconjugate Secretion” value ([2]; 0.1 nM, Rat 2 Plate 2) is reported as 3.2 μg glycoconjugate/mg total protein and the “Glycoconjugate Secretion” value ([2]; 0.1 nM, Rat 3) is reported as 1.41 Fold increase above basal. For the same compound, the “Glycoconjugate Secretion” value ([2]; 0.1 nM, Rat 3 Plate 1) was 6.9 μg glycoconjugate/mg total protein, the “Glycoconjugate Secretion, Mean ± sem” value ([2]; 0.1 nM) was 1.40 ± 0.01 Fold increase above basal and the “Glycoconjugate Secretion, Mean ± SD” value ([2]; 0.1 nM) was 5.1 ± 2.6 μg glycoconjugate/mg total protein. The “Glycoconjugate Secretion” value ([2]; 1 nM, Rat 1) was 1.05 Fold increase above basal, the “Glycoconjugate Secretion” value ([2]; 1 nM, Rat 1 Plate 2) was 4.1 μg glycoconjugate/mg total protein and the “Glycoconjugate Secretion” value ([2]; 1 nM, Rat 2) was 1.78 Fold increase above basal. The “Glycoconjugate Secretion” value ([2]; 1 nM, Rat 2 Plate 2) was 4.1 μg glycoconjugate/mg total protein, the “Glycoconjugate Secretion, Mean ± sem” value ([2]; 1 nM) was 1.42 ± 0.37 Fold increase above basal and the “Glycoconjugate Secretion, Mean ± SD” value ([2]; 1 nM) was 4.1 ± 0 μg glycoconjugate/mg total protein. The “Glycoconjugate Secretion” value ([2]; 10 nM, Rat 1) was 1.56 Fold increase above basal, the “Glycoconjugate Secretion” value ([2]; 10 nM, Rat 1 Plate 1) was 11.3 μg glycoconjugate/mg total protein and the “Glycoconjugate Secretion” value ([2]; 10 nM, Rat 1 Plate 2) was 3.5 μg glycoconjugate/mg total protein. The “Glycoconjugate Secretion” value ([2]; 10 nM, Rat 2) was 1.30 Fold increase above basal, the “Glycoconjugate Secretion” value ([2]; 10 nM, Rat 2 Plate 2) was 3.0 μg glycoconjugate/mg total protein and the “Glycoconjugate Secretion” value ([2]; 10 nM, Rat 3) was 1.24 Fold increase above basal. The “Glycoconjugate Secretion” value ([2]; 10 nM, Rat 3 Plate 1) was 6.1 μg glycoconjugate/mg total protein, the “Glycoconjugate Secretion” value ([2]; 10 nM, Rat 4) was 0.85 Fold increase above basal and the “Glycoconjugate Secretion” value ([2]; 10 nM, Rat 4 Plate 2) was 8.4 μg glycoconjugate/mg total protein. For the same compound, the “Glycoconjugate Secretion, Mean ± sem” value ([2]; 10 nM) was 1.30 ± 0.25 Fold increase above basal, the “Glycoconjugate Secretion, Mean ± SD” value ([2]; 10 nM) was 6.5 ± 3.5 μg glycoconjugate/mg total protein and the “increase in mucin secretion” value ([2]; 0.1, 1 and 10 nM, not dose-dependent) was ~1.4 fold. For the same compound, the “MAPK activity above basal” value (p42/44 MAPK) was 6.1±0.7 fold.
